Assay results reported in patent publication US5614510A, “Pharmaceutical composition with improved bioavailability of inositol phosphate” (priority 1992, dated 1997).
Where a name gives a salt, the structure may show the parent alone.

Columns and labels:
[1] = bioavailability of IP3 in pigs: blood concentration of IP3 and AUC after intravenous, intraduodenal or oral administration; type: in vivo
Protocol: The blood samples were assayed for the content of IP3 and these measurements were used for the calculation of the reference data as 100% of the substance is introduced into the blood stream after an intravenous injection.
Another five pigs were given the N(3-dodecanoyloxy)propyltrimethyl ammonium salt of IP3 as an intraduodenal dosing. The animals were treated with Atropin® and anaesthetized with Hypnodil®/Sedaperone® whereafter a laparotomy was carried out. Blood samples were collected at the time intervals mentioned above and the concentration of IP3 was determined in each sample. By calculating the area under the curve (AUC) from a graph where the concentration versus time is shown and comparing the obtained value with a similar calculation from the data after intravenous injection of the substance the bioavailability for the specific formulation is obtained.
Blood samples were collected at the same time intervals as above and the concentration of IP3 was determined. Following a similar procedure the AUC was determined.
(§1) Blood samples were collected and the concentration of IP3 were determined.
as §1

[2] = system: intestinal barriers

With `O=P(O)(O)O[C@@H]1[C@H](OP(=O)(O)O)[C@H](O)[C@@H](O)[C@H](O)[C@H]1OP(=O)(O)O` [sodium salt, pentasodium salt of D-myo-inositol-1.2.6-triphosphate] the “Normalized AUC” value ([1]; pig, in vivo) was 3%, the “Normalized AUC” value ([1]; pig, in vivo, iv) was 100% and the concentration at 0.25 h ([1]; pig, in vivo, iv) was 71000 nM. For the same molecule, the concentration at 0.5 h ([1]; pig, in vivo, iv) was 47500 nM, the concentration at 1 h ([1]; pig, in vivo, iv) was 24900 nM and the concentration at 2 h ([1]; pig, in vivo, iv) was 9300 nM. It also gave a concentration at 4 h ([1]; pig, in vivo, iv) of 3200 nM, a concentration at 8 h ([1]; pig, in vivo, iv) of 400 nM and a concentration at 24 h ([1]; pig, in vivo, iv) of 200 nM. For the same molecule, the “conc. IP3” value ([1]; pig, in vivo, iv, 0 min) was 0 nM, the concentration ([1]; pig, in vivo, iv, 2 h) was 9300 nM and the concentration at 0.25 h ([1]; pig, in vivo, po) was 200 nM. It also gave a concentration at 0.5 h ([1]; pig, in vivo, po) of 500 nM, a concentration at 1 h ([1]; pig, in vivo, po) of 500 nM and a concentration at 2 h ([1]; pig, in vivo, po) of 200 nM. For the same molecule, the concentration at 4 h ([1]; pig, in vivo, po) was 100 nM, the concentration at 6 h ([1]; pig, in vivo, po) was 100 nM and the “conc. IP3” value ([1]; pig, in vivo, po, 0 min) was 0 nM. For the same molecule, the concentration ([1]; pig, in vivo, po, 1 h) was 500 nM, the “conc. IP3” value ([1]; pig, in vivo, po, 480 min) was 0 nM and the “conc. IP3” value ([1]; pig, in vivo, po, 1440 min) was 0 nM.

For “N(3-dodecanoyloxy)propyltrimethylammonium inositol trisphosphate”, the “conc. IP3” value ([1]; pig blood, oral formulation given as intraduodenal dosing, 0 hrs) was 0 nM, the “Normalized AUC” value ([1]; pig, in vivo) was 46% and the “bioavailability of the oral formulation” value ([1]; pig, in vivo) was 46%. It also gave a concentration ([1]; pig, in vivo, 0.25 h) of 6300 nM, a concentration ([1]; pig, in vivo, 0.5 h) of 9400 nM and a concentration ([1]; pig, in vivo, 1 h) of 10800 nM. It also gave a concentration ([1]; pig, in vivo, 2 h) of 7600 nM, a concentration ([1]; pig, in vivo, 4 h) of 2200 nM and a concentration ([1]; pig, in vivo, 6 h) of 1000 nM. It also gave a concentration ([1]; pig, in vivo, 8 h) of 800 nM and a concentration ([1]; pig, in vivo, 24 h) of 100 nM.

With “N-(hexyloxycarbonyl)methyl trimethyl ammonium inositol trisphosphate” the “toxic effects on the intestinal barriers” value [2] was “no toxic effects on the intestinal barriers”, the “Normalized AUC” value ([1]; pig, in vivo) was 75% and the “bioavailability of the oral formulation” value ([1]; pig, in vivo) was 75%. For the same molecule, the “conc. IP3” value ([1]; pig, in vivo, 0 min) was 0 nM, the concentration ([1]; pig, in vivo, 0.25 h) was 18200 nM and the concentration ([1]; pig, in vivo, 0.5 h) was 29600 nM. The concentration ([1]; pig, in vivo, 1 h) was 20100 nM, the concentration ([1]; pig, in vivo, 2 h) was 12200 nM and the concentration ([1]; pig, in vivo, 4 h) was 4300 nM. The concentration ([1]; pig, in vivo, 6 h) was 1500 nM and the concentration ([1]; pig, in vivo, 24 h) was 100 nM.
